These results are taken from EP0637247B1, “TREATMENT OF HERPESVIRUS INFECTION” (priority 1992, dated 1993).

Experiment [1] deals with HSV-1 strain F. As to conditions: mice, foot-pad injections in PBS, one week pretreatment then three times weekly; particularly at the doses of 5 and 50µg/mouse. The procedure:
After pretreatment, the left footpad was inflamed by injecting about 5 µL of 1M NaCl. After about 6 hours, the same footpad was abraded and a drop of HSV-1 strain F (2 x 10^3 pfu/ml) was then added deposited on the inflamed footpad.

Experiment [2] deals with HSV-1 F. The format is cell-based. The note with it: plaque reduction, HSV-1 F on Vero cell monolayers, peptide pretreatment 25 hours, replication 2 to 3 days. The procedure: Selected compounds were first formulated as 10 mM stocks in water for in vitro and cell culture procedures. The stocks are then diluted into buffers used for specific assays, or into cell culture media. For animal studies peptides are diluted into phosphate buffer saline.
Results of the plaque reduction assay performed with various peptides, expressed in terms of IC50 are tabulated below: […]

Like-named read-outs stand apart in the source and are kept apart here. Where a SMILES comes first, the peptide text is derived from it. [ ]: non-standard residue; d: D form.

Consider `CC(=O)N[C@H](CCCNC(=N)N)C(=O)N[C@H](CCCNC(=N)N)C(=O)N[C@H](CCCNC(=N)N)C(=O)N[C@H](CCCNC(=N)N)C(=O)N[C@H](CCCNC(=N)N)C(=O)N[C@H](CCCNC(=N)N)C(=O)N[C@H](CCCNC(=N)N)C(=O)N[C@H](CCCNC(=N)N)C(=O)N[C@H](CCCNC(=N)N)C(N)=O` [acetyl-[D-Arg]9-NH2], for which the “anti-herpetic effect in vivo (Figure 3)” value in experiment [1] is “anti-herpetic result”.
Regarding `CC(=O)N[C@H](CCCNC(=N)N)C(=O)N[C@H](CCCCN)C(=O)N[C@H](CCCCN)C(=O)N[C@H](CCCNC(=N)N)C(=O)N[C@H](CCCNC(=N)N)C(=O)N[C@H](CCC(N)=O)C(=O)N[C@H](CCCNC(=N)N)C(=O)N[C@H](CCCNC(=N)N)C(N)=O` (Ac-[dR][dK][dK][dR][dR][dQ][dR][dR]-NH2), the half-inhibitory concentration (IC50) in experiment [2] (read-out: IC50) is above 20 µM.
Regarding `CC(=O)N[C@H](CCCNC(=N)N)C(=O)N[C@H](CCCNC(=N)N)C(=O)N[C@H](CCCNC(=N)N)C(=O)N[C@H](CCCNC(=N)N)C(=O)N[C@H](CCCNC(=N)N)C(=O)N[C@H](CCCNC(=N)N)C(=O)N[C@H](CCCNC(=N)N)C(N)=O` [acetyl-[D-Arg]7-NH2, acetyl-[D-(Arg)7]-NH2], the IC50 result in experiment [2] is “slight”.
Consider `CC[C@H](C)[C@H](NC(=O)[C@H](C)NC(=O)[C@@H](NC(=O)[C@H](Cc1ccccc1)NC(C)=O)[C@@H](C)CC)C(=O)N[C@@H](C)C(=O)N[C@H](CCCNC(=N)N)C(=O)N[C@H](CCCCN)C(=O)N[C@H](CCCCN)C(=O)N[C@H](CCCNC(=N)N)C(=O)N[C@H](CCCNC(=N)N)C(=O)N[C@H](CCC(N)=O)C(=O)N[C@H](CCCNC(=N)N)C(=O)N[C@H](CCCNC(=N)N)C(N)=O` (Ac-FIAIA[dR][dK][dK][dR][dR][dQ][dR][dR]-NH2), for which the IC50 in experiment [2] (read-out: IC50) turned out to be 10 µM.

What is called IC50 is the concentration needed to halve the response being measured.
